Experimental findings from publication PMC6273138, “Inhibitory Effects of Aschantin on Cytochrome P450 and Uridine 5′-diphospho-glucuronosyltransferase Enzyme Activities in Human Liver Microsomes” (Molecules, 2016) are described below.

In data set [1] the target is T1, UGT1A4 (Homo sapiens, UniProt P22310).
T1 construct: using pooled human liver microsomes incubated with the cocktail of UGT substrates; tissue Corning Life Sciences 452161; host or cells: pooled human liver microsomes
T1 sequence (P22310 29-534): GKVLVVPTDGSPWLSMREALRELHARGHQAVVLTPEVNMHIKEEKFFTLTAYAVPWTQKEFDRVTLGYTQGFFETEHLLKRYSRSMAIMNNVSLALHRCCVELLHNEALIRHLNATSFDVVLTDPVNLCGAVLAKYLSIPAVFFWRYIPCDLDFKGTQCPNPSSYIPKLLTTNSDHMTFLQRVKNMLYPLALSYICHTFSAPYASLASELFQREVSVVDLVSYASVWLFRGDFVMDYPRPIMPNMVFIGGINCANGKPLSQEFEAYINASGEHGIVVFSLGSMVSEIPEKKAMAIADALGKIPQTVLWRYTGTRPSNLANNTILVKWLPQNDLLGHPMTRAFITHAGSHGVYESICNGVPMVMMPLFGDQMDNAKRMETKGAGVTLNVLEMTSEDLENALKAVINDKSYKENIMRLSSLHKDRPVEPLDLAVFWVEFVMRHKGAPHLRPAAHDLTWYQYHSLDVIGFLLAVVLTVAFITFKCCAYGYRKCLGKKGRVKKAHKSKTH
Briefly: UGT1A4-catalyzed trifluoperazine N-glucuronidation inhibition in pooled human liver microsomes. It is filed as in vitro ADME. How it is done:
(§1) The extents of aschantin on UGT1A1, UGT1A3, UGT1A4, UGT1A6, UGT1A9, and UGT2B7 were evaluated by LC-MS/MS, using pooled human liver microsomes incubated with the cocktail of UGT substrates. The method was modified from that of Joo et al..
(§2) The metabolites formed from the six UGT cocktail substrates were simultaneously measured using the LC-MS/MS method. […] The mass spectrometer was equipped with an ESI source and was operated in both positive and negative ion modes. […] Each metabolite was quantified via SRM in the negative ion (chenodeoxycholic acid 24-acyl-β-glucuronide, 567.2 > 391.0; mycophenolic acid glucuronide, 495.2 > 318.9; propofol glucuronide, 353.3 > 177.1) and positive ion (SN-38 glucuronide, 569.0 > 393.0; trifluoperazine glucuronide, 584.2 > 408.1; N-acetylserotonin-β-D-glucuronide, 395.2 > 219.0; naloxone 3-β-D-glucuronide, 504.0 > 310.0; meloxicam, 352.0 > 115.1) modes.
Background: Liver microsomes are a subcellular fraction often used to study metabolism.

Data set [2] addresses CYP3A4 (Homo sapiens, UniProt P08684). Put plainly: CYP3A4-catalyzed midazolam 1′-hydroxylase inhibition in pooled human liver microsomes. The conditions noted are these: for IC50: CYP3A4 midazolam 1′-hydroxylase, 2.5 µM midazolam.
Experimental: (§3) The degrees of inhibition (the IC50 values) of aschantin toward CYP1A2, CYP2A6, CYP2C8, CYP2C9, CYP2C19, CYP2D6, and CYP3A4 were evaluated using pooled human liver microsomes employing a cocktail of CYP substrates and liquid chromatography-tandem mass spectrometry (LC-MS/MS). […] After 3 min pre-incubation at 37 °C, the reactions were initiated by addition of NADPH and incubation proceeded for 15 min at 37 °C in a shaking water bath. The reaction was stopped by placing the tubes on ice and adding 100 µL amounts of ice-cold methanol containing internal standards (^13C2,^15N-acetaminophen for acetaminophen and N-desethylamodiaquine; d9-1′-hydroxybufuralol for 4′-hydroxydiclofenac; and 7-hydroxycoumarin, 4′-hydroxy-mephenytoin, 1′-hydroxybufuralol, and 1′-hydroxymidazolam). Then the incubation mixtures were centrifuged at 13,000× g for 4 min at 4 °C. All assays were performed in triplicate and the average values were used in calculations.
(§4) To this end, we employed a tandem mass spectrometer (TSQ Quantum Access, Thermo Scientific, San Jose, CA, USA) coupled to a Nanospace SI-2 LC system (Shiseido, Tokyo, Japan). The column and autosampler temperatures were 50 °C and 6 °C, respectively. The mass spectrometer was equipped with an electrospray ionization (ESI) source and was operated in positive ion mode. The ESI source settings for metabolite ionization were as follows: capillary voltage, 4200 V; vaporizer temperature, 350 °C; capillary temperature 330 °C; sheath gas pressure, 35 psi; and auxiliary gas pressure, 15 psi. […] Analytical data were processed using Xcalibur® software (Thermo Scientific).
Data set [3] has as its target CYP2C9 (Homo sapiens, UniProt P11712). Put plainly: Mechanism-based (time- and concentration-dependent) inactivation of CYP2C9 in human liver microsomes. It is filed as in vitro ADME. The following applies: CYP2C9-catalyzed diclofenac 4′-hydroxylation. How it is done: The microsomes (1 mg/mL) were pre-incubated with various concentrations of aschantin in 50 mM potassium phosphate buffer (pH 7.4) in the presence of NADPH. Aliquots (10 µL) of the incubated mixtures were withdrawn at 5, 10, 15, and 20 min after incubation commenced and added to other tubes containing the CYP substrates (2 µM amodiaquine for CYP2C8, 10 µM diclofenac for CYP2C9, 100 µM [S]-mephenytoin for CYP2C19, or 2 µM midazolam for CYP3A4), 1 mM NADPH, 50 mM potassium phosphate buffer (pH 7.4), and 10 mM MgCl2, in 90 µL reaction mixtures. […] Aliquots (5 µL) of the diluted supernatants were analyzed by LC-MS/MS, as described above.

The target of data set [4] is CYP2C19 (Homo sapiens, UniProt P33261). Briefly: CYP2C19-catalyzed [S]-mephenytoin 4′-hydroxylase inhibition in pooled human liver microsomes. The conditions noted are these: for IC50: CYP2C19 (S)-mephenytoin 4′-hydroxylase, 100 µM [S]-mephenytoin.
Experimental: as §3, §4
(§5) The apparent kinetic inhibitory potentials (the Ki values) were estimated from the fitted curves using Enzyme Kinetics version 1.1 (Systat Software Inc.).
Data set [5] has as its target T2, UGT1A1 (Homo sapiens, UniProt P22309).
T2 construct: using pooled human liver microsomes incubated with the cocktail of UGT substrates; tissue Corning Life Sciences 452161; host or cells: pooled human liver microsomes
T2 sequence (P22309 26-533): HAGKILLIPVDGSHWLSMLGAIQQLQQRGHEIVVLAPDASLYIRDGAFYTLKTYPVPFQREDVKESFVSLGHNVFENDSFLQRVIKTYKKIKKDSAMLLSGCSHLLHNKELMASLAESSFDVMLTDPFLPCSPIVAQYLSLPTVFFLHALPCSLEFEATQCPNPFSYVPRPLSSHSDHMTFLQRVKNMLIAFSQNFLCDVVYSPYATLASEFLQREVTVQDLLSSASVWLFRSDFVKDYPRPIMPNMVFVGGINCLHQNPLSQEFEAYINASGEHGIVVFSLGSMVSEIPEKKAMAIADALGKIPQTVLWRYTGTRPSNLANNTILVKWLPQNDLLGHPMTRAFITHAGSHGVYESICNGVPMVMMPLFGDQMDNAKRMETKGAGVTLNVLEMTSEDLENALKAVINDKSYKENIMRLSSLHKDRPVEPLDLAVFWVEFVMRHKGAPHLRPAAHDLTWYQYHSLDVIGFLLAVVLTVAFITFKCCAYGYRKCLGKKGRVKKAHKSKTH
Put plainly: UGT1A1-catalyzed SN-38 glucuronidation inhibition in pooled human liver microsomes. Type of data set: in vitro ADME. The following applies: 0.5 µM SN-38, pooled human liver microsomes. How it is done: as §1, §2

Data set [6] concerns the target T3, CYP2C8 (Homo sapiens, UniProt P10632).
T3 sequence (P10632 1-490): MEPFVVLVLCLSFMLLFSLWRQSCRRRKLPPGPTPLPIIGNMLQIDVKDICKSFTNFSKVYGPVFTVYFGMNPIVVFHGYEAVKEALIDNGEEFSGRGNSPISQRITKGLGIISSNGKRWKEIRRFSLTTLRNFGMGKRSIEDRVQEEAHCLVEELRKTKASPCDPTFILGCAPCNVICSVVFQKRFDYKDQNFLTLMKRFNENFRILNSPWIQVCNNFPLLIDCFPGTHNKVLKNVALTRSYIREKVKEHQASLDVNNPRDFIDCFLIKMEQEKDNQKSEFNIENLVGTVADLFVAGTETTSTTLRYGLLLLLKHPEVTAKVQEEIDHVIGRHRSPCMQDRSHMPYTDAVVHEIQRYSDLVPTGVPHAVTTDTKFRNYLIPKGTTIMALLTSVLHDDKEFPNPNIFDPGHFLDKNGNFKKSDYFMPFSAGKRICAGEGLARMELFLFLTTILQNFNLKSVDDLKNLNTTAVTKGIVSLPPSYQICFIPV
Put plainly: CYP2C8-catalyzed amodiaquine N-de-ethylase inhibition in pooled human liver microsomes. The following applies: for IC50: CYP2C8 amodiaquine N-de-ethylase, 2.0 µM amodiaquine.
Experimental: as §3, §4, §5

The mark [7] stands for this setting: IC50 No Pre-incubation, pooled human liver microsomes, no pre-incubation.
The mark [8] stands for this setting: IC50 With Pre-incubation, 30 min pre-incubation with microsomes and NADPH.

SMILES strings stand for the structures. Some results are limits rather than exact numbers.

Chain of CYP3A4 (P08684 2-503): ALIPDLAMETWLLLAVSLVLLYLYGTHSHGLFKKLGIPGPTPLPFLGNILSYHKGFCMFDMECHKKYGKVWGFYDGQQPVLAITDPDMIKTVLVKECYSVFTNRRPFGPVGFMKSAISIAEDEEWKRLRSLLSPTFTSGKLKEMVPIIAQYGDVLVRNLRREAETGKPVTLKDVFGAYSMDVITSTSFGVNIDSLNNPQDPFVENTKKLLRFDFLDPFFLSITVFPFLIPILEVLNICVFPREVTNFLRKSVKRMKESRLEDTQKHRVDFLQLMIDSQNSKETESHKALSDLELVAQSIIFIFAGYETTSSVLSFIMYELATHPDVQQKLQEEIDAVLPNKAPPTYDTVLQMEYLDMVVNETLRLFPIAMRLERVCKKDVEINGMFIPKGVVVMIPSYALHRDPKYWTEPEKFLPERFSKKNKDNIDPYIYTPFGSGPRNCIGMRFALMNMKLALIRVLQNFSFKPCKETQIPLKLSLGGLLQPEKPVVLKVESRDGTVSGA
Chain of CYP2C19 (P33261 whole entry): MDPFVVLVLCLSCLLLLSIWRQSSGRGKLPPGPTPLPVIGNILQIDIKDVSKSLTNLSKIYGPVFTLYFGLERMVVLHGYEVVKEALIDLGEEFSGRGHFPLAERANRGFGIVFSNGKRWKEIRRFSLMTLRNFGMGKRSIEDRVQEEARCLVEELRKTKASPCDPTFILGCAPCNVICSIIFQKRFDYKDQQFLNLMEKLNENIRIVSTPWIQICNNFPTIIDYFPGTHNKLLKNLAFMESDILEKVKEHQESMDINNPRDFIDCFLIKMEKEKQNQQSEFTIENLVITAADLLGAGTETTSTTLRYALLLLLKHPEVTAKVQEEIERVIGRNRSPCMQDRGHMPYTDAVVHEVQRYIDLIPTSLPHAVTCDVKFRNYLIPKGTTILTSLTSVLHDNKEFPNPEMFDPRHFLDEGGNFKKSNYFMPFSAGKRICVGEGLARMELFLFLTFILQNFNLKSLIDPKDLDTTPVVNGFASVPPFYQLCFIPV
Chain of CYP2C9 (P11712 whole entry): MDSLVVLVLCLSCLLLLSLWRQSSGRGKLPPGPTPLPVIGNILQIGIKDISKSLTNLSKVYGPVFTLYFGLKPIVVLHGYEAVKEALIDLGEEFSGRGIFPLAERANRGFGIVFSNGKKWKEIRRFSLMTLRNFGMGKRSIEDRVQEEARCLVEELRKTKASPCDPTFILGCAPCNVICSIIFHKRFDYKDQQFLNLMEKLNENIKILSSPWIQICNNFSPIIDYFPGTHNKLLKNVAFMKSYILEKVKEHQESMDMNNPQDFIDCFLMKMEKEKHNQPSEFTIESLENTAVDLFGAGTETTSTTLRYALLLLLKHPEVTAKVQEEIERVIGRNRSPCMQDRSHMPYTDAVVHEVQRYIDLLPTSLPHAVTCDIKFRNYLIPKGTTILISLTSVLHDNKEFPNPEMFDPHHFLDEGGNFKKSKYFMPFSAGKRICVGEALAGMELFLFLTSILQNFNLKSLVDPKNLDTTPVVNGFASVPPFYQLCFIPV

On to `COc1cc([C@H]2OC[C@H]3[C@@H]2CO[C@@H]3c2ccc3c(c2)OCO3)cc(OC)c1OC` [Aschantin], for which the IC50 (commonly the concentration that gives 50% inhibition) was greater than 200 µM in data set [1] (UGT1A4-catalyzed trifluoperazine N-glucuronidation, 0.5 µM trifluoperazine, pooled human liver microsomes); 57.5 µM in data set [2] (setting [7]); 14.4 µM in data set [2] (setting [8]); 22.7 µM in data set [4] (setting [7]); 6.1 µM in data set [4] (setting [8]); 132 µM in data set [5]. Moreover, the results for the IC50 in data set [6] (setting [7]) and in data set [6] (setting [8]) were 27.8 µM and 5.3 µM, respectively. Besides, in data set [1] (aschantin at 200 µM, human liver microsomes), the “inhibition of UGT1A4-catalyzed trifluoperazine N-glucuronidation” value is on record as “not inhibited”. For the same molecule, the IC50 shift at 0.5 h in data set [2] (human, pooled human liver microsomes, pH 7.4, probe midazolam (2.5 µM), 1′-hydroxylation) is greater than 2.5; in data set [4] (human, pooled human liver microsomes, pH 7.4, probe [S]-mephenytoin (100 µM), 4′-hydroxylation), greater than 2.5; in data set [6] (human, pooled human liver microsomes, pH 7.4, probe amodiaquine (2.0 µM), N-de-ethylation) it was greater than 2.5. Moreover, in data set [3] (read-out: Ki (apparent)), the Ki is 3.7 µM. For the same molecule, the kinact (usually the maximal first-order rate at which the target is inactivated) in data set [3] (pH 7.4, probe diclofenac (10 µM)) is 0.000733 s⁻¹.
